row,Structure (SMILES),melting point [°C]
1,"CC1(C)OC(c2ccc(S(C)(=O)=O)cc2)=C(c2ccc(F)c(Cl)c2)C1=O [Example 2, 4-(3-Chloro-4-fluorophenyl)-2,2-dimethyl-5-{4-(methylsulfonyl)phenyl}-3(2H)-furanone]",162 to 164
2,"CNS(=O)(=O)c1ccc(C2=C(c3cccc(F)c3)C(=O)C(C)(C)O2)cc1 [Example 184, 2,2-Dimethyl-5-{4-(N-methylaminosulfonyl)phenyl}-4-(3-fluorophenyl)-3(2H)-furanone]",176 to 177
3,"Cc1cc(C2=C(c3cccc(F)c3)C(=O)C(C)(C)O2)ccc1S(N)(=O)=O [Example 380, 5-{4-(Aminosulfonyl)-3-methylphenyl}-2,2-dimethyl-4-(3-fluorophenyl)-3(2H)-furanone]",81 to 82
4,"CSc1ccc(C2=C(c3cc(F)cc(F)c3)C(=O)C(C)(C)O2)cc1 [Example 173, 4-(3,5-difluorophenyl)-2,2-dimethyl-5-{4-(methylthio)-phenyl}-3(2H)-furanone]",122 to 123
5,"CC1(C)OC(c2ccc(S(N)(=O)=O)cc2)=C(c2cccc(-c3ccccc3)c2)C1=O [Example 29, 5-{4-(Aminosulfonyl)phenyl}-4-(3-biphenyl)-2,2-dimethyl-3(2H)-furanone]",160 to 161
6,"CSc1ccc(C2=C(c3ccc(S(C)(=O)=O)cc3)OC(C)(C)C2=O)cc1 [Example 72, 2,2-dimethyl-5-{4-(methylsulfonyl)phenyl}-4-{4-(methylthio)-phenyl}-3(2H)-furanone]",137 to 141
7,"CC1(C)OC(c2ccc(S(N)(=O)=O)cc2)=C(c2ccc3c(c2)OCO3)C1=O [Example 27, 5-{4-(Aminosulfonyl)phenyl{-2,2-dimethyl-4-}3,4-(methylenedioxy)phenyl}-3(2H)-furanone]",178 to 179
8,"C[S+]([O-])c1ccc(C2=C(c3ccccc3)C(=O)C(C)(C)O2)c(F)c1 (stereo not drawn) [Example 327, 2,2-Dimethyl-5-{2-fluoro-4-(methylsulfinyl)phenyl}-4-phenyl-3(2H)-furanone]",149 to 150
9,"CCS(=O)(=O)c1ccc(C2=C(c3ccc(S(C)(=O)=O)cc3)OC(C)(C)C2=O)cc1 [Example 110, 2,2-Dimethyl-4-{4-(ethylsulfonyl)phenyl}-5-{4-(methylsulfonyl)phenyl}-3(2H)-furanone]",198 to 203
10,"COc1c(C)cc(C2=C(c3ccc(S(C)(=O)=O)cc3)OC(C)(C)C2=O)cc1C [Example 12, 2,2-Dimethyl-4-(3,5-dimethyl-4-methoxyphenyl)-5-{4-(methylsulfonyl)phenyl}-3(2H)-furanone]",130 to 131
11,"CCCC(=O)NS(=O)(=O)c1ccc(C2=C(c3cccc(F)c3)C(=O)C(C)(C)O2)cc1 [Example 183, 5-[4-{(n-Butyrylamino)sulfonyl}phenyl]-2,2-dimethyl-4-(3-fluorophenyl)-3(2H)-furanone]",188 to 189
12,"CC1(C)OC(c2ccc(S(C)(=O)=O)cc2)=C(c2ccc(S(C)(=O)=O)cc2)C1=O [Example 109, 2,2-Dimethyl-4,5-di{4-(methylsulfonyl)phenyl}-3(2H)-furanone]",245 to 257
13,CC1(C)OC(c2ccc(S(N)(=O)=O)cc2)=C(c2cc3ccccc3s2)C1=O [Example 28],120 to 121
14,"CC1(C)OC(c2ccc(S(C)(=O)=O)cc2)=C(c2cccnc2)C1=O [Example 19, 2,2-Dimethyl-5-{4-(methylsulfonyl)phenyl}-4-(3-pyridyl)-3(2H)-furanone]",164 to 166
15,"CCC1(CC)OC(c2ccc(S(C)(=O)=O)cc2)=C(c2ccccc2)C1=O [Example 47, 2,2-Diethyl-5-{4-(methylsulfonyl)phenyl}-4-phenyl-3(2H)-furanone]",139 to 140

# Results, then the compound that gave them:
row,melting point [°C],Structure (SMILES)
1,103 to 105,"CCSc1ccc(C2=C(c3ccc(S(C)(=O)=O)cc3)OC(C)(C)C2=O)cc1 [Example 88, 2,2-dimethyl-4-{4-(ethylthio)phenyl}-5-{4-(methylsulfonyl)-phenyl}-3(2H)-furanone]"
2,154 to 155,"Cc1cccc(C2=C(c3ccc(S(C)(=O)=O)cc3)OC3(CCCCC3)C2=O)c1 [Example 260, 3-(3-Methylphenyl)-2-{4-(methylsulfonyl)phenyl}-1-oxa-spiro[4,5]dec-2-en-4-one]"
3,113 to 114,"CCC1(C)OC(c2ccc(S(N)(=O)=O)cc2)=C(c2ccc(OC)c(F)c2)C1=O (stereo not drawn) [Example 46, 5-{4-(Aminosulfonyl)phenyl}-2-ethyl-4-(3-fluoro-4-methoxyphenyl)-2-methyl-3(2H)-furanone]"
4,178 to 179,"CC1(C)OC(c2ccc(S(C)(=O)=O)cc2)=C(c2ccc3c(c2)OCO3)C1=O [Example 8, 2,2-Dimethyl-4-(3,4-methylenedioxyphenyl)-5-{4-(methylsulfonyl)phenyl}-3(2H)-furanone]"
5,118 to 120,"CC1(C)OC(c2ccc(S(C)(=O)=O)cc2)=C(c2ccc(OC(F)(F)F)cc2)C1=O [Example 7, 2,2-Dimethyl-5-{4-(methylsulfonyl)phenyl}-4-{4-(trifluoromethoxy)phenyl}-3(2H)-furanone]"
6,120 to 121,"C[S+]([O-])c1ccc(C2=C(c3ccccc3)C(=O)C(C)(C)O2)cc1Cl (stereo not drawn) [Example 363, 5-{3-Chloro-4-(methylsulfinyl)phenyl}-2,2-dimethyl-4-phenyl-3(2H)-furanone]"
7,106,"CSc1ccc(C2=C(c3cccc(F)c3)C(=O)C(C)(C)O2)cc1 [Example 166, 2,2-Dimethyl-4-(3-fluorophenyl)-5-{4-(methylthio)phenyl}-3(2H)-furanone]"
8,126 to 130,"CC(=O)c1ccc(C2=C(c3ccc(S(C)(=O)=O)cc3)OC3(CCCC3)C2=O)cc1 [Example 55, 3-(4-Acetylphenyl)-2-{4-(methylsulfonyl)phenyl}-1-oxa-spiro[4,4]non-2-en-4-one]"
9,194 to 195,"CC1(C)OC(c2ccc(S(C)(=O)=O)cc2)=C(c2cccc3ccccc23)C1=O [Example 13, 2,2-Dimethyl-5-{4-(methylsulfonyl)phenyl}-4-(1-naphthyl)-3(2H)-furanone]"
10,135 to 136,"C[S+]([O-])c1ccc(C2=C(c3ccccc3)C(=O)C(C)(C)O2)c(Cl)c1 (stereo not drawn) [Example 391, 5-{2-Chloro-4-(methylsulfinyl)phenyl}-2,2-dimethyl-4-phenyl-3(2H)-furanone]"
11,204 to 206,"CC1(C)OC(c2ccc(S(C)(=O)=O)cc2)=C(c2cc3ccccc3s2)C1=O [Example 15, 4-(2-Benzo[b]thienyl)-2,2-dimethyl-5-{4-(methylsulfonyl)phenyl}-3(2H)-furanone]"
12,140 to 141,"CC1(C)OC(c2ccc(S(C)(=O)=O)cc2)=C(c2cc3ccccc3o2)C1=O [Example 16, 4-(2-Benzo[b]furanyl)-2,2-dimethyl-5-{4-(methylsulfonyl)phenyl}-3(2H)-furanone]"
13,143 to 145,CC1(C)OC(c2ccc(S(N)(=O)=O)cc2)=C(c2cc3ccccc3o2)C1=O [Example 30]
14,167 to 168,"Cc1ccc(C2=C(c3ccc(S(C)(=O)=O)cc3)OC(C)(C)C2=O)cc1 [Example 1, 2,2-Dimethyl-4-(4methylphenyl)-5-{4-(methylsulfonyl)phenyl}-3(2H)-furanone]"
15,173 to 174,"CC1(C)OC(c2ccc(S(C)(=O)=O)c(F)c2)=C(c2ccc([N+](=O)[O-])cc2)C1=O [Example 287, 2,2-dimethyl-4-(4-nitrophenyl)-5-{3-fluoro-4-(methylsulfonyl)-phenyl}-3(2H)-furanone]"
